Laboratory results published in publication PMC5844530, “Fosmetpantotenate (RE-024), a phosphopantothenate replacement therapy for pantothenate kinase-associated neurodegeneration: Mechanism of action and efficacy in nonclinical models” (PLoS ONE, 2018).
Several values for one entry are separate records, joined by “and”; a condition that tells them apart may be missing. Identical values can stand only once.

What was measured:
[1] = Pharmacokinetics in whole blood, cynomolgus monkeys; details: male, cynomolgus monkey, in vivo, 300 mg/kg, fosmetpantotenate 300 mg/kg oral, blood
Method: (§1) The whole blood samples (0.5 mL) were collected into syringes that were prefilled with 2.5 mL of ice-cold 0.1% formic acid in acetonitrile. The volume ratio of the whole blood to 0.1% formic acid in acetonitrile was 1/5 (v/v). Samples were frozen (-70°C) until analyzed by LC-MS/MS.
(§2) Standard curves and quality control (QC) samples were prepared fresh on the day of analysis by serial dilution of the standard mixture in quenched whole blood (1 part of blood to 5 parts of 0.1% formic acid in acetonitrile) and centrifuged. […] The frozen study samples were thawed in an ice/water bath and centrifuged. Supernatant (50 μL) from standards, QC samples, and study samples was transferred to a 96-well plate and dried completely under nitrogen. The dried residues were reconstituted with 100 μL of 0.1% formic acid in water containing internal standard (5 ng/mL of ^15N/^13C3-RE-024-02) and analyzed by LC-MS/MS.
(§3) LC-MS/MS analysis for blood pharmacokinetic samples: Samples were analyzed using an Agilent 1100 binary pump (Agilent Technologies, Santa Clara, CA, USA), connected to an AB Sciex API 6500 mass spectrometer (SCIEX, Framingham, MA, USA). An electrospray ionization source was used, scanning in the positive mode. […] The chromatography column was a Varian Metasil AQ 120–5 C18 column, 5 μm, 50 x 2.00 mm (Part No. A0530050X020) at ambient temperature, with a 0.5 mL/min flow rate and a 20 μL injection volume. Mobile phase (A) consisted of 0.1% formic acid in water; while mobile phase (B) consisted of 0.1% formic acid in acetonitrile:water (9:1, v/v).
(§4) Quantitation of in vivo samples: Peak areas were integrated using Analyst software (AB Sciex, Concord, Ontario, Canada). […] Calibration standards (at a minimum 7 per curve) were fit by linear regression with (1/x^2) weighting. QC samples were used (triplicate) at 3 concentrations for all tandem mass spectrometry (MS/MS) runs.
(§5) Pharmacokinetic calculations: PK analysis was performed using Phoenix WinNonlin®, Build 6.3.0.395 (Certara, Princeton, NJ, USA) using a non-compartmental model (PO dose = model 200 for extravascular dosing). […] Post-dose concentrations below the limit of quantitation (BLQ) were omitted from calculation.

[2] = Pharmacokinetics in whole blood, Sprague-Dawley rats; details: male Sprague-Dawley rats, blood, BQL <1.26 nM
Method: as §1, §2, §3, §4, §5

[3] = Fosmetpantotenate Mean Conc., male cynomolgus monkeys
[4] = Fosmetpantotenate blood concentration, Cyno #1, male cynomolgus monkeys
[5] = Fosmetpantotenate blood concentration, Cyno #2, male cynomolgus monkeys

For `COC(=O)CCNC(=O)[C@H](O)C(C)(C)COP(=O)(N[C@@H](C)C(=O)OC)Oc1ccccc1` (mixture of isomers) [Fosmetpantotenate], the concentration at 0.333 h [1, 3] was 550 nM, the concentration at 0.5 h [1, 3] was 376 nM and the concentration at 1 h [1, 3] was 18700 nM. It also gave a concentration at 2 h [1, 3] of 13200 nM, a concentration at 4 h [1, 3] of 249 nM and a concentration at 0.083 h [1, 4] of 41.9 nM. For the same compound, the concentration at 0.167 h [1, 4] was 93.8 nM, the concentration at 0.333 h [1, 4] was 128 nM and the concentration at 0.5 h [1, 4] was 211 nM. It also gave a concentration at 1 h [1, 4] of 9950 nM, a concentration at 2 h [1, 4] of 3460 nM and a concentration at 4 h [1, 4] of 231 nM. For the same compound, the concentration at 0.083 h [1, 5] was 351 nM, the concentration at 0.167 h [1, 5] was 1720 nM and the concentration at 0.333 h [1, 5] was 972 nM. It also gave a concentration at 0.5 h [1, 5] of 541 nM, a concentration at 1 h [1, 5] of 27400 nM and a concentration at 2 h [1, 5] of 22900 nM. The concentration at 4 h [1, 5] was 267 nM, the “Fosmetpantotenate Conc.” value ([2]; fosmetpantotenate 100 mg/kg oral, 0.033 hr, individual animals) was “BQL” and the “Fosmetpantotenate Mean Conc.” value ([2]; fosmetpantotenate 100 mg/kg oral, 0.033 hr, mean) was “BQL”. For the same compound, the “Fosmetpantotenate Conc.” value ([2]; fosmetpantotenate 100 mg/kg oral, 0.083 hr, individual animals) was “BQL”, the “Fosmetpantotenate Mean Conc.” value ([2]; fosmetpantotenate 100 mg/kg oral, 0.083 hr, mean) was “BQL” and the “Fosmetpantotenate Conc.” value ([2]; fosmetpantotenate 100 mg/kg oral, 0.167 hr, individual animals) was “BQL”. For the same compound, the “Fosmetpantotenate Mean Conc.” value ([2]; fosmetpantotenate 100 mg/kg oral, 0.167 hr, mean) was “BQL”, the “Fosmetpantotenate Conc.” value ([2]; fosmetpantotenate 100 mg/kg oral, 0.33 hr, individual animals) was “BQL” and the “Fosmetpantotenate Mean Conc.” value ([2]; fosmetpantotenate 100 mg/kg oral, 0.33 hr, mean) was “BQL”. For the same compound, the “Fosmetpantotenate Conc.” value ([2]; fosmetpantotenate 100 mg/kg oral, 0.5 hr, individual animals) was “BQL”, the “Fosmetpantotenate Conc.” value ([2]; fosmetpantotenate 100 mg/kg oral, 1 hr, individual animals) was “BQL” and the “Fosmetpantotenate Mean Conc.” value ([2]; fosmetpantotenate 100 mg/kg oral, 1 hr, mean) was “BQL”. For the same compound, the “Fosmetpantotenate Conc.” value ([2]; fosmetpantotenate 100 mg/kg oral, 2 hr, individual animals) was “BQL”, the “Fosmetpantotenate Mean Conc.” value ([2]; fosmetpantotenate 100 mg/kg oral, 2 hr, mean) was “BQL” and the “Fosmetpantotenate Conc.” value ([2]; fosmetpantotenate 100 mg/kg oral, 4 hr, individual animals) was “BQL”. The “Fosmetpantotenate Conc.” value ([2]; fosmetpantotenate 100 mg/kg oral, 8 hr, individual animals) was “BQL”, the “Fosmetpantotenate Mean Conc.” value ([2]; fosmetpantotenate 100 mg/kg oral, 8 hr, mean) was “BQL” and the “Fosmetpantotenate Conc.” value ([2]; fosmetpantotenate 300 mg/kg oral, 0.033 hr, individual animals) was 4.15 nM and BQL. The “Fosmetpantotenate Conc.” value ([2]; fosmetpantotenate 300 mg/kg oral, 0.083 hr, individual animals) was “BQL”, the “Fosmetpantotenate Mean Conc.” value ([2]; fosmetpantotenate 300 mg/kg oral, 0.083 hr, mean) was “BQL” and the “Fosmetpantotenate Conc.” value ([2]; fosmetpantotenate 300 mg/kg oral, 0.167 hr, individual animals) was 8.83 nM and 22.89 nM and 22.51 nM. The “Fosmetpantotenate Conc.” value ([2]; fosmetpantotenate 300 mg/kg oral, 0.33 hr, individual animals) was “BQL and 64.88 nM and 7.67 nM”, the “Fosmetpantotenate Conc.” value ([2]; fosmetpantotenate 300 mg/kg oral, 0.5 hr, individual animals) was 2.28 nM and BQL and 577.94 nM and the “Fosmetpantotenate Conc.” value ([2]; fosmetpantotenate 300 mg/kg oral, 1 hr, individual animals) was “BQL”. The “Fosmetpantotenate Conc.” value ([2]; fosmetpantotenate 300 mg/kg oral, 2 hr, individual animals) was “BQL”, the “Fosmetpantotenate Conc.” value ([2]; fosmetpantotenate 300 mg/kg oral, 4 hr, individual animals) was “BQL” and the “Fosmetpantotenate Conc.” value ([2]; fosmetpantotenate 300 mg/kg oral, 8 hr, individual animals) was “BQL”. The “Fosmetpantotenate Mean Conc.” value ([2]; fosmetpantotenate 300 mg/kg oral, 8 hr, mean) was “BQL”, the “Fosmetpantotenate Conc.” value ([2]; fosmetpantotenate 700 mg/kg oral, 0.033 hr, individual animals) was 2149.90(a) nM and BQL and 114.07 nM and the “Fosmetpantotenate Conc.” value ([2]; fosmetpantotenate 700 mg/kg oral, 0.083 hr, individual animals) was 518.51 nM and BQL and 1.62 nM. The “Fosmetpantotenate Conc.” value ([2]; fosmetpantotenate 700 mg/kg oral, 0.167 hr, individual animals) was 28.96 nM and 23269.54(a) nM and 247.87 nM, the “Fosmetpantotenate Conc.” value ([2]; fosmetpantotenate 700 mg/kg oral, 0.33 hr, individual animals) was 2541.94 nM and 1277.3 nM and 54 nM and the “Fosmetpantotenate Conc.” value ([2]; fosmetpantotenate 700 mg/kg oral, 0.5 hr, individual animals) was 509.65 nM and 72.84 nM and 84.61 nM. The “Fosmetpantotenate Conc.” value ([2]; fosmetpantotenate 700 mg/kg oral, 1 hr, individual animals) was 73.35 nM and 63.86 nM and 214.99 nM, the “Fosmetpantotenate Conc.” value ([2]; fosmetpantotenate 700 mg/kg oral, 2 hr, individual animals) was “BQL and 1035.75 nM” and the “Fosmetpantotenate Conc.” value ([2]; fosmetpantotenate 700 mg/kg oral, 4 hr, individual animals) was 419.86 nM and BQL and 32.12 nM. For the same compound, the “Fosmetpantotenate Conc.” value ([2]; fosmetpantotenate 700 mg/kg oral, 8 hr, individual animals) was “BQL”, the “Fosmetpantotenate Mean Conc.” value ([2]; fosmetpantotenate 700 mg/kg oral, 8 hr, mean) was “BQL” and the concentration at 0.5 h ([2]; male, Sprague-Dawley, rat, in vivo, 100 mg/kg, Fosmetpantotenate Conc., fosmetpantotenate 100 mg/kg oral, 0.5 hr, individual animals) was 3.31 nM. The concentration at 4 h ([2]; male, Sprague-Dawley, rat, in vivo, 100 mg/kg, Fosmetpantotenate Conc., fosmetpantotenate 100 mg/kg oral, 4 hr, individual animals) was 2.04 nM, the concentration at 0.5 h ([2]; male, Sprague-Dawley, rat, in vivo, 100 mg/kg, Fosmetpantotenate Mean Conc., fosmetpantotenate 100 mg/kg oral, 0.5 hr, mean) was 3.31 nM and the concentration at 4 h ([2]; male, Sprague-Dawley, rat, in vivo, 100 mg/kg, Fosmetpantotenate Mean Conc., fosmetpantotenate 100 mg/kg oral, 4 hr, mean) was 2.04 nM. It also gave a concentration at 0.033 h ([2]; male, Sprague-Dawley, rat, in vivo, 300 mg/kg, Fosmetpantotenate Conc., fosmetpantotenate 300 mg/kg oral, 0.033 hr, individual animals) of 3.9 nM, a concentration at 1 h ([2]; male, Sprague-Dawley, rat, in vivo, 300 mg/kg, Fosmetpantotenate Conc., fosmetpantotenate 300 mg/kg oral, 1 hr, individual animals) of 6.98 nM and a concentration at 2 h ([2]; male, Sprague-Dawley, rat, in vivo, 300 mg/kg, Fosmetpantotenate Conc., fosmetpantotenate 300 mg/kg oral, 2 hr, individual animals) of 3.41 nM. The concentration at 4 h ([2]; male, Sprague-Dawley, rat, in vivo, 300 mg/kg, Fosmetpantotenate Conc., fosmetpantotenate 300 mg/kg oral, 4 hr, individual animals) was 3.69 nM, the concentration at 0.033 h ([2]; male, Sprague-Dawley, rat, in vivo, 300 mg/kg, Fosmetpantotenate Mean Conc., fosmetpantotenate 300 mg/kg oral, 0.033 hr, mean) was 4.03 nM and the concentration at 0.167 h ([2]; male, Sprague-Dawley, rat, in vivo, 300 mg/kg, Fosmetpantotenate Mean Conc., fosmetpantotenate 300 mg/kg oral, 0.167 hr, mean) was 18.1 nM. The concentration at 0.33 h ([2]; male, Sprague-Dawley, rat, in vivo, 300 mg/kg, Fosmetpantotenate Mean Conc., fosmetpantotenate 300 mg/kg oral, 0.33 hr, mean) was 36.3 nM, the concentration at 0.5 h ([2]; male, Sprague-Dawley, rat, in vivo, 300 mg/kg, Fosmetpantotenate Mean Conc., fosmetpantotenate 300 mg/kg oral, 0.5 hr, mean) was 290 nM and the concentration at 1 h ([2]; male, Sprague-Dawley, rat, in vivo, 300 mg/kg, Fosmetpantotenate Mean Conc., fosmetpantotenate 300 mg/kg oral, 1 hr, mean) was 6.98 nM. For the same compound, the concentration at 2 h ([2]; male, Sprague-Dawley, rat, in vivo, 300 mg/kg, Fosmetpantotenate Mean Conc., fosmetpantotenate 300 mg/kg oral, 2 hr, mean) was 3.41 nM, the concentration at 4 h ([2]; male, Sprague-Dawley, rat, in vivo, 300 mg/kg, Fosmetpantotenate Mean Conc., fosmetpantotenate 300 mg/kg oral, 4 hr, mean) was 3.69 nM and the concentration at 2 hr ([2]; male, Sprague-Dawley, rat, in vivo, 700 mg/kg, Fosmetpantotenate Conc., fosmetpantotenate 700 mg/kg oral, 2 hr, individual animals) was 663 nM. The concentration at 0.033 h ([2]; male, Sprague-Dawley, rat, in vivo, 700 mg/kg, Fosmetpantotenate Mean Conc., fosmetpantotenate 700 mg/kg oral, 0.033 hr, mean) was 114 nM, the concentration at 0.083 h ([2]; male, Sprague-Dawley, rat, in vivo, 700 mg/kg, Fosmetpantotenate Mean Conc., fosmetpantotenate 700 mg/kg oral, 0.083 hr, mean) was 260 nM and the concentration at 0.167 hr ([2]; male, Sprague-Dawley, rat, in vivo, 700 mg/kg, Fosmetpantotenate Mean Conc., fosmetpantotenate 700 mg/kg oral, 0.167 hr, mean) was 138 nM. The concentration at 0.33 hr ([2]; male, Sprague-Dawley, rat, in vivo, 700 mg/kg, Fosmetpantotenate Mean Conc., fosmetpantotenate 700 mg/kg oral, 0.33 hr, mean) was 1290 nM, the concentration at 0.5 hr ([2]; male, Sprague-Dawley, rat, in vivo, 700 mg/kg, Fosmetpantotenate Mean Conc., fosmetpantotenate 700 mg/kg oral, 0.5 hr, mean) was 222 nM and the concentration at 1 hr ([2]; male, Sprague-Dawley, rat, in vivo, 700 mg/kg, Fosmetpantotenate Mean Conc., fosmetpantotenate 700 mg/kg oral, 1 hr, mean) was 117 nM. It also gave a concentration at 2 hr ([2]; male, Sprague-Dawley, rat, in vivo, 700 mg/kg, Fosmetpantotenate Mean Conc., fosmetpantotenate 700 mg/kg oral, 2 hr, mean) of 849 nM and a concentration at 4 h ([2]; male, Sprague-Dawley, rat, in vivo, 700 mg/kg, Fosmetpantotenate Mean Conc., fosmetpantotenate 700 mg/kg oral, 4 hr, mean) of 226 nM.
